Assays:
[1] = test system: hemocyte PLA2 of S. exigua; assay: Nonspecific (total) hemocyte PLA2 activity, pyrene-labeled phospholipid fluorometric assay; type: biochemical, Spodoptera exigua; details: for Median Inhibitory Concentrations (IC50), Total PLA2: hemocyte extract of S. exigua L5 larvae, synthetic compounds; for Inhibitory activity against hemocyte PLA2 (in words): S. exigua hemocyte PLA2, extracts, fractions or synthetic compounds
Method: Hemocyte PLA2 activity was fluorometrically determined with a pyrene-labeled phospholipid substrate using a spectrofluorometer (VICTOR multi-label plate reader, PerkinElmer, Waltham, MA, USA) at excitation and emission wavelengths of 345 and 398 nm, respectively. For measuring PLA2 activity, hemolymph was collected from ~10 L5 larvae. Hemocytes and plasma were separated by centrifugation at 800× g for 3 min at 4 °C. Hemocytes were then homogenized in 500 µL of PBS with a polytron (Ultra-Turrax T8, Ika Laboratory, Funkentshort, Germany). After centrifugation at 14,000× g for 5 min at 4 °C, protein concentration of the supernatant was determined by Bradford assay using bovine serum albumin (BSA) as the standard. The reaction mixture was prepared in a 96-well microplate by adding 129 μL of 50 mM Tris buffer (pH 7.0), 2 μL of 1 M CaCl2, and 2 μL of 10% BSA into each well. A sample solution consisted of 5 μL of test bacterial metabolites and 10 μL of hemocyte enzyme extract ([…]). The plate was then incubated at room temperature for 30 min. Enzyme reaction was then initiated by adding pyrene-labeled PL substrate (2 μL) to the reaction mixture.

secretory PLA2 (sPLA2) = assay: Secretory PLA2 (sPLA2) activity; type: biochemical, Spodoptera exigua; details: for Median Inhibitory Concentrations (IC50), sPLA2: S. exigua, synthetic compounds; for Potency for inhibiting sPLA2 (in words): based on IC50 values
Method: (§1) To characterize PLA2 inhibition by test chemicals, activities of two different PLA2s [secretory PLA2 (sPLA2) and cytosolic PLA2 (cPLA2)] were assessed with methods described by Vatanparast et al..

cytosolic PLA2 (cPLA2) = assay: Cytosolic PLA2 (cPLA2) activity; type: biochemical, Spodoptera exigua; details: for Median Inhibitory Concentrations (IC50), cPLA2: S. exigua, synthetic compounds; for Potency for inhibiting cPLA2 (in words): based on IC50 values
Method: as §1

[2] = test system: hemocyte phagocytosis of S. exigua; assay: Phagocytosis assay with FITC-labeled E. coli in L5 larvae; type: in vivo, Spodoptera exigua; details: for Median Inhibitory Concentration (IC50), Phagocytosis: injected into L5 larvae with FITC-labeled E. coli; for Inhibition of phagocytosis (in words): S. exigua hemocytes
Method: For in vivo phagocytosis assay, test chemical (1 µL) and FITC-labeled E. coli (5 µL, 5 × 10^4 cells/µL) were injected to L5 larva. Hemolymph (50 µL) was collected at 15 min after injection and mixed with 50 µL of ice cold ACB. After centrifugation at 700 × g for 3 min at 4 °C, the supernatant plasma was replaced with 100 µL of TC-100 insect cell culture medium (Welgene, Daegu, Korea). Hemocyte suspension (10 µL) was placed onto a slide and over laid with 10 µL glycerol (50%, v/v). Hemocytes undergoing phagocytosis were determined by fluorescence-emitting cells under a fluorescence microscope (Leica, Wetzlar, Germany) at 40× magnification. For in vitro phagocytosis, hemocyte suspension and labeled bacteria mixture (30 µL) were incubated in a dark place for 1 h at room temperature. Hemocytes were then washed three times with PBS by centrifugation at 700× g for 2 min at 4 °C and finally resuspended in TC-100 medium. This hemocyte suspension was observed under the fluorescence microscope in FITC or DIC mode after forming monolayers on glass slides.

[3] = test system: hemocyte nodule formation; assay: Nodulation assay after E. coli injection in L5 larvae; type: in vivo, Spodoptera exigua; details: for Median Inhibitory Concentration (IC50), Nodulation: injected into L5 larvae with E. coli, nodules counted after 8 h
Method: To assess nodule formation, immune challenge was performed by injecting 3 µL of Escherichia coli Top10 (10^4 cells/larva) (Invitrogen, Madison, WI, USA) through the abdominal proleg of L5 larvae using a microsyringe (Hamilton, Reno, NV, USA). After incubating at 25 °C for 8 h, test insects were dissected to count the number of melanized nodules under a stereo microscope (Stemi SV11, Zeiss, Jena, Germany) at 50× magnification. For chemical test, 1 µL aliquot of test chemical at different concentrations was injected into each larva along with E. coli. AA was injected at 10 μg per larva. Each treatment was independently replicated five times.

Sf9 cells = assay: Cytotoxicity test (MTT); type: cell-based; details: for Cytotoxicity (MIC, minimum inhibitory concentration): MTT, 24 h at 28 °C
Method: Cytotoxicity of each secondary metabolite was evaluated by 3-(4,5 dimethylthiazol-2-yl)-2,5-diphenyl tetrazolium bromide (MTT) assay according to the method described by Mollah et al.. with a slight modification. Briefly, Sf9 cells (1.2 × 10^4 cells in 200 μL of TC-100 medium) were seeded into each 96-well. After adding each test chemical (2.5 μL in DMSO), the plate was incubated at 28 °C for 24 h. Control cells were treated with 2.5 μL of DMSO. After 24 h incubation, 10 μL of MTT (5 mg/mL in PBS) was added to each well and cells were cultured for another 4 h at 28 °C. Formazan granules formed in viable cells were dissolved in 50 μL of DMSO. Absorbance was then measured at 540 nm using a microplate reader (Victor Multilabel Plate Reader, PerkinElmer, Waltham, MA, USA).

S. exigua larvae [4] = assay: Insecticidal activity by injection; type: in vivo, Spodoptera exigua; details: for Insecticidal Activities, Injection: median lethal dose by Probit analysis, S. exigua larvae
Method: All data for continuous variables were subjected to one-way analysis of variance (ANOVA) using PROG GLM in SAS program. Mortality data were subjected to arcsine transformation and used for ANOVA. Means were compared with the least significant difference (LSD) test at Type I error of 0.05. Median toxicity values such as median lethal dose (LD50), median lethal concentration (LC50), median lethal time (LT50), and median inhibition concentrations (IC50) were calculated by Probit analysis using EPA Probit Analysis Program, ver. 1.5 (U.S. Environmental Protection Agency, Washington, DC, USA). […]

S. exigua larvae [5] = assay: Feeding toxicity, leaf-dipping method; type: in vivo, Spodoptera exigua; details: for Insecticidal Activities, Feeding: median lethal concentration by Probit analysis, leaf-dipping
Method: (§2) For the virulence test of X. hominickii, 24 h-cultured cells (10^8 cfu/mL) were diluted with sterile PBS. After surface sterilization with 95% ethanol, each L5 larva was injected with 1 µL of test compound (1 µg/larva) along with bacterial suspension (10^2 cfu/larva). Injection was performed through the first abdominal proleg using a micro syringe. Injected larvae were incubated at room temperature individually in 9 cm Petri dishes. For oral toxicity assay of B. thuringiensis, a small piece (2 × 2 cm) of Chinese cabbage was dipped in 500 ppm of Bt or a mixture of Bt (500 ppm) with 500 ppm of test chemical for 5 min. After a brief (5 min) drying under a dark condition, the treated leaf was supplied to individual test larva in 9 cm Petri dish for 24 h at room temperature. After 24 h, larvae were fed with fresh cabbage leaves. Each treatment was replicated three times with 10 larvae per replication. […] Larvae were considered dead if they were unable to move in a coordinated manner when prodded with a blunt probe.
All data for continuous variables were subjected to one-way analysis of variance (ANOVA) using PROG GLM in SAS program. Mortality data were subjected to arcsine transformation and used for ANOVA. Means were compared with the least significant difference (LSD) test at Type I error of 0.05. Median toxicity values such as median lethal dose (LD50), median lethal concentration (LC50), median lethal time (LT50), and median inhibition concentrations (IC50) were calculated by Probit analysis using EPA Probit Analysis Program, ver. 1.5 (U.S. Environmental Protection Agency, Washington, DC, USA).
These compounds were also tested for their feeding toxicities using a leaf-dipping method.

mammals = details: cited from earlier work
S. exigua larvae [6] = assay: Effect on pathogenicity of X. hominickii (co-injection); type: in vivo, Spodoptera exigua; details: L5 larvae injected with Xh 10^2 cfu/larva along with inhibitor (5 µg/larva Fig. 7A; 2 µg/larva Fig. S6); 4 days after treatment
Method: as §2, with “After surface sterilization with 95% ethanol, each L5 larva was injected with 1 µL of test compound (1 µg/larva) along with bacterial suspension (10^2 cfu/larva).” left out

S. exigua larvae [7] = assay: Effect on pathogenicity of Bacillus thuringiensis (oral, leaf dipping); type: in vivo, Spodoptera exigua; details: cabbage leaf dipped in Bt 500 ppm mixed with inhibitor 500 ppm; 4 days after treatment
Method: as §2

SMILES | Median Inhibitory Concentrations (IC50), Total PLA2 [1] | Median Inhibitory Concentrations (IC50), sPLA2 (secretory PLA2 (sPLA2)) | Potency for inhibiting sPLA2 (in words) (secretory PLA2 (sPLA2)) | Median Inhibitory Concentrations (IC50), cPLA2 (cytosolic PLA2 (cPLA2)) | Median Inhibitory Concentration (IC50), Phagocytosis [2] | Median Inhibitory Concentration (IC50), Nodulation [3] | Cytotoxicity (MIC, minimum inhibitory concentration) (Sf9 cells) | Insecticidal Activities, Injection (S. exigua larvae [4]) | Insecticidal Activities, Feeding (S. exigua larvae [5]) | Potency for inhibiting cPLA2 (in words) (cytosolic PLA2 (cPLA2)) | Inhibitory activity against hemocyte PLA2 (in words) [1] | Inhibition of phagocytosis (in words) [2] | other results
CCCCCCCCCCCCCCCCCCCCCC [DS, docosane] | 0.81 ± 0.04 b µg/mL | 1.22 ± 0.15 a µg/mL | least potent | 0.32 ± 0.02 b µg/mL | 8.40 ± 0.68 b ng/larva | 1.11 ± 0.09 b ng/larva | 1.0 ± 0.03 a µg/mL | 49.54 ± 4.55 a µg/larva | 3554.0 ± 100.18 a µg/mL | – | – | – | –
CCCCCCCCOC(=O)c1ccc(C(=O)OCCCCCCCC)cc1 [DOTP, dioctyl terephthalate] | 0.16 ± 0.006 cd µg/mL | 0.56 ± 0.05 c µg/mL | – | 0.06 ± 0.005 e µg/mL | 8.70 ± 0.89 b ng/larva | 1.10 ± 0.07 b ng/larva | 0.50 ± 0.01 c µg/mL | 38.89 ± 3.21 b µg/larva | 3220.45 ± 90.91 b µg/mL | highly potent | – | – | Toxicity to mammals (in words) (mammals): relatively nontoxic
CCCCCC=CCC=CCC=CCC=CCCCC(=O)O [AA, 5,8,11,14-eicosatetraenoic acid, reference compound] | – | – | – | – | – | – | – | – | – | – | – | – | Reversal of suppressed phagocytosis by AA addition ([2]; AA 10 µg/larva with the eight compounds): reversed; Rescue of suppressed nodule formation by AA addition ([3]; AA 10 µg/larva co-injected with extract, subfraction or compound and E. coli): significantly (p < 0.05) rescued
CCOc1cc(O)ccc1OC [EMP, 3-ethoxy-4-methoxyphenol] | 0.04 ± 0.02 e µg/mL | 0.03 ± 0.005 f µg/mL | highly potent | 0.05 ± 0.004 ef µg/mL | 0.20 ± 0.03 g ng/larva | 0.20 ± 0.02 f ng/larva | 0.1 ± 0.01 f µg/mL | 18.95 ± 2.61 d µg/larva | 2100.34 ± 40.19 f µg/mL | highly potent | most potent | highly potent | Inhibition of nodule formation (in words) ([3]; S. exigua L5 larvae, E. coli challenge): high potency; Concentration inducing cytotoxicity (Sf9 cells): less than 1 µg/mL; Killing of larvae after injection (in words) (S. exigua larvae [4]; individually injected to S. exigua larvae): most potent; Feeding (oral) toxicity (in words) (S. exigua larvae [5]; leaf-dipping method): most potent; Effect on X. hominickii pathogenicity / insecticidal activity (S. exigua larvae [6]): significantly (p < 0.05) increased; Effect on B. thuringiensis insecticidal activity (S. exigua larvae [7]): significantly (p < 0.05) increased
CCCCC(CC)CO (centres unmarked) [EH, 2-ethyl-1-hexanol] | 0.14 ± 0.01 µg·days/mL | 0.05 ± 0.004 f µg/mL | highly potent | 0.11 ± 0.01 µg·days/mL | – | 0.40 ± 0.03 e ng/larva | 0.20 ± 0.02 e µg/mL | 29.90 ± 3.05 c µg/larva | 2456.35 ± 50.88 e µg/mL | – | – | – | –
N#Cc1ccccc1C(=O)O [CBA, o-cyanobenzoic acid] | 0.86 ± 0.02 a µg/mL | 1.11 ± 0.11 a µg/mL | least potent | 0.38 ± 0.03 a µg/mL | 32.50 ± 2.35 a ng/larva | 2.50 ± 0.22 a ng/larva | 0.50 ± 0.02 c µg/mL | 54.96 ± 4.03 a µg/larva | 2850.65 ± 80.68 c µg/mL | least potent | least potent | least potent | –
